US20260056187A1, “METHODS OF FORMING PATIENT-DERIVED 3D CELL CULTURES FOR TRACKING LIVE IMMUNE-TUMOR INTERACTIONS” (OUROTECH, INC., priority 2022, published 2026)

Legend:
[1] = tested on: kidney tumor cells with PBMCs (1:5); experiment: 3D tumor-immune co-culture, combination therapies, change in tumor cell numbers over 3 days (Example 19); conditions: normalized to Day 0, staurosporine 5 μM, axitinib 10 μM + pembrolizumab 10 μg/mL, n=3
[2] = tested on: TNBC cell line xenografts (CDXs); conditions: BRGS-HIS mice with TNBC CDXs; cited from earlier work
[3] = tested on: 3D tumor-immune culture from a patient with renal cell carcinoma (tumor cells and matched PBMCs); experiment: 3D tumor-immune culture, Keytruda treatment compared to CD3 activation, live cell imaging over 5 days (Example 17); assay type: cell-based, human; conditions: for tumor-containing hydrogel dome volume: 10 μg/mL Keytruda vs CD3-activated/control culture, evident by Day 1
Method: A) An aliquot of pembrolizumab (25 mg/mL) was diluted in PBS to achieve a working stock of 1 mg/mL. 2 μL of this stock is added to the tumor-immune culture to achieve a final dose of 10 μg/mL. In parallel, 2 μL of a 1 mg/mL stock of human anti-IgG4 is added to a negative control tumor-immune culture.
A tumor sample and matched blood sample from a patient with renal cell carcinoma were prepared according to the foregoing Examples and methods. Briefly, PBMCs were isolated from blood and CD8^+ and CD8^− cells were separated, stained, and recombined as previously described. PBMCs were either cultured with 1 μg/mL anti-CD3 or 10 μg/mL Keytruda for 18 hours. Tumors were dissociated and stained and 10,000 cells were encapsulated in hydrogel as previously described. At TO, 100,000 PBMCs from each condition were added to tumor cultures. Live cell imaging, using confocal microscopy, was conducted each day for 5 days and images were analyzed using the disclosed computer vision pipeline. The presented data are from single replicates obtained from one experiment.

CN[C@@H]1C[C@H]2O[C@@](C)([C@@H]1OC)n1c3ccccc3c3c4c(c5c6ccccc6n2c5c31)C(=O)NC4 [Staurosporine]
change in tumor cell count [1]: decreased tumor cell count the most

nivolumab
time after treatment until significant effect on tumor volume relative to vehicle control [2]: ≥ 10 days

pembrolizumab [Keytruda]
clustering of hydrogel-infiltrated CD8+ PBMCs ([3]; 10 μg/mL Keytruda or 1 μg/mL anti-CD3, over 5 days, single replicate): more clustering over time | rate of dome volume shrinking ([3]; 10 μg/mL Keytruda vs CD3-activated sample, Day 1): higher at Day 1 | viability of tumor cells / tumor cell death ([3]; 10 μg/mL Keytruda vs CD3-activated sample, evident by Day 2, single replicate): increased tumor cell death | speed of CD8+ PBMCs infiltrated into the hydrogel (migration peak speed) ([3]; 10 μg/mL Keytruda vs CD3-activated sample, over 5 days, single replicate): higher CD8^+ cell migration peak speed | tumor-containing hydrogel dome volume ([3]; single replicate): dome volume shrinks more | tumor-containing hydrogel dome volume ([3]; single replicate, listed as Keytruda/pembrolizumab): measurable, and noticeable, and may be statistically significantly different, by one day after adding the treatment | clustering of hydrogel-infiltrated CD8- and CD8+ PBMCs together ([3]; 10 μg/mL Keytruda vs CD3 activation, throughout 5 days, single replicate): clustered together more | infiltration of CD8+ PBMCs into the tumor-containing hydrogel (absolute counts) ([3]; PBMCs cultured 18 hours with 10 μg/mL Keytruda vs 1 μg/mL anti-CD3, evident as early as Day 1, single replicate): increased infiltration of CD8^+ cells into the tumor-containing hydrogel
